Assay results published in patent US20230027361A1, “METTL3 MODULATORS” (priority 2019, published 2023).
Like-named read-outs stand apart in the source and are kept apart here.

Key:
PRMT5-MEP50 = PRMT5-MEP50 (Homo sapiens, UniProt O14744); experiment: PRMT5 Assay (PRMT5 biochemical assay)
Description: Assays were performed in a 25 μl-volume in 384-well V-bottom polypropylene microplates (Greiner Bio-One, cat. No. 781280) at ambient temperature. Optimized 1× assay buffer was 20 mM Tris-HCl pH 8.0, 1 mM DTT, […]. For compound screening PRMT5-MEP50 (final concentration, f.c.=2.5 nM) was added using a Multidrop Combi (ThermoFisher Scientific, Waltham, Mass.) and preincubated for 5 min. Reactions were started by adding 3′ biotinylated histone H4 peptide acetylated on serine 1 (Ac-[…]-Biotin) (f.c.=100 nM) and 3H-SAM (f.c.=250 nM) substrates. Reactions proceeded for 60 minutes and were quenched with excess non-radioactive SAM (f.c.=15 μM). The reactions were then transferred to streptavidin-coated flashplates and incubated for 2 hours at 25° C. Following two washing cycles with 0.1% Tween-20, the plates were sealed and read on a TopCount (PerkinElmer, Waltham, Mass.) plate-based scintillation counter. For determination of kinetic parameters, reaction times were optimized so that measurements were taken during the initial velocity phase of the reaction.

METTL3/METTL14 = METTL3/METTL14 (Homo sapiens, UniProt Q86U44); experiment: METTL3-14 Standard Enzyme Assay (METTL3 biochemical assay)
Description: Assays were performed in a 25 μl-volume in 384-well V-bottom polypropylene microplates (Greiner Bio-One, cat. No. 781280) at ambient temperature. Optimized 1× assay buffer was 20 mM HEPES pH 7.5, 50 mM KCl, 250 μM MgCl2, 1 mM DTT, 0.01% Tween, 0.01% BSG, 0.004 U/μl RNAseOUT (cat. No. 10777019, ThermoFisher Scientific, Waltham, Mass.). For compound screening METTL3/METTL14 (final concentration, f.c.=2.5 nM) was added using a Multidrop Combi (ThermoFisher Scientific, Waltham, Mass.) and preincubated for 5 min. Reactions were started by adding 3′ biotinylated RNA ([…]-biotin) (f.c.=100 nM) and 3H-SAM (f.c.=100 nM) substrates. Reactions proceeded for 30 minutes and were quenched with excess non-radioactive SAM (f.c.=15 μM). The reactions were then transferred to streptavidin-coated flashplates and incubated for 2 hours at 25° C. Following two washing cycles with 0.1% Tween-20, the plates were sealed and read on a TopCount (PerkinElmer, Waltham, Mass.) plate-based scintillation counter. For determination of kinetic parameters, reaction times were optimized so that measurements were taken during the initial velocity phase of the reaction.

[1] = PRMT5 biochemical assay, read-out: PRMT5 IC50
[2] = METTL3 biochemical assay, read-out: METTL3 IC50

METTL3/METTL14, sequence (Q86U44 whole entry, species assumed): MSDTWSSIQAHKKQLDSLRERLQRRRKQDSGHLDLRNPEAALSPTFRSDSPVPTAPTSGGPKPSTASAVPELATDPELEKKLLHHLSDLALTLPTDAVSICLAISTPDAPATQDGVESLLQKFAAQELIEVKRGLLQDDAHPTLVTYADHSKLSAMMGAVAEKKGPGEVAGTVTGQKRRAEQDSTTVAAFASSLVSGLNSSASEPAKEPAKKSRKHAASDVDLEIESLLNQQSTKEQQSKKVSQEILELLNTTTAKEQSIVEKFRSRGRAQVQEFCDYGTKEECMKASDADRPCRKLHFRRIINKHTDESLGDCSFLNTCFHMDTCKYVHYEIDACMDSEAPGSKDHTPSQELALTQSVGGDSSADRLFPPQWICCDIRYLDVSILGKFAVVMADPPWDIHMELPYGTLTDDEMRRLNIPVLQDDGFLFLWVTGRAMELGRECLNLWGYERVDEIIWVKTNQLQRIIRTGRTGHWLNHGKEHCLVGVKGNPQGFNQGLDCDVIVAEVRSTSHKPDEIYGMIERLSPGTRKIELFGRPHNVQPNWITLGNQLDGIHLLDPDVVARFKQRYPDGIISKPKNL
METTL3/METTL14, sequence (Q9HCE5 whole entry partner, species assumed): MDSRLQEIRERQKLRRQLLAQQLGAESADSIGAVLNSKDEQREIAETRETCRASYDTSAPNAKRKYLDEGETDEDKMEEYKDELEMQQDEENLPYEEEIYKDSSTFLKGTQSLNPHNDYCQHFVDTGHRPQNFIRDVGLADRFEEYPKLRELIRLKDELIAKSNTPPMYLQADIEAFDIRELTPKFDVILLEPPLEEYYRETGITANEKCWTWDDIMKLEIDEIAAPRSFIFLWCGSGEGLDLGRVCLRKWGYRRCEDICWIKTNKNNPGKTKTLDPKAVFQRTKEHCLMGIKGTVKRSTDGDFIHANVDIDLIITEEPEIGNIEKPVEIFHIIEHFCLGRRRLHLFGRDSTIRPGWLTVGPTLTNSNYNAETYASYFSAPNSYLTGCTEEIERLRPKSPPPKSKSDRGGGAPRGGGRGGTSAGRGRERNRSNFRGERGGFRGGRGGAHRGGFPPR
PRMT5-MEP50, sequence (O14744 whole entry): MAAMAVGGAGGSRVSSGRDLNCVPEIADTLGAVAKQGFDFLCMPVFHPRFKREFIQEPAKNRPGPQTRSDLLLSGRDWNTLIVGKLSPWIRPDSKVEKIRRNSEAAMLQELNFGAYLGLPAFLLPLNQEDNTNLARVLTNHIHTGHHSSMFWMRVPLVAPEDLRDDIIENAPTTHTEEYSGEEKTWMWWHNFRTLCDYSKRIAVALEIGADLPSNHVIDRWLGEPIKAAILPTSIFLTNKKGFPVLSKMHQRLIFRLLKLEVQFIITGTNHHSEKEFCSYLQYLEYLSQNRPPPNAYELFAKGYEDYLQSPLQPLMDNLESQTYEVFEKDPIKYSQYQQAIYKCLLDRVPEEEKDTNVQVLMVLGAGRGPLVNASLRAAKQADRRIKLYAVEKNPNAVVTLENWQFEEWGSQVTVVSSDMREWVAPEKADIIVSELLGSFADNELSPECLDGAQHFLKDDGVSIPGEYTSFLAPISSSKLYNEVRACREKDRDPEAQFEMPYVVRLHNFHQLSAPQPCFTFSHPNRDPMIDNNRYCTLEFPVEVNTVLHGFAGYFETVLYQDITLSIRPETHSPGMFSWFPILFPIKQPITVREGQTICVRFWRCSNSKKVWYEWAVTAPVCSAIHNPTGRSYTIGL
PRMT5-MEP50, sequence (Q9BQA1 whole entry partner): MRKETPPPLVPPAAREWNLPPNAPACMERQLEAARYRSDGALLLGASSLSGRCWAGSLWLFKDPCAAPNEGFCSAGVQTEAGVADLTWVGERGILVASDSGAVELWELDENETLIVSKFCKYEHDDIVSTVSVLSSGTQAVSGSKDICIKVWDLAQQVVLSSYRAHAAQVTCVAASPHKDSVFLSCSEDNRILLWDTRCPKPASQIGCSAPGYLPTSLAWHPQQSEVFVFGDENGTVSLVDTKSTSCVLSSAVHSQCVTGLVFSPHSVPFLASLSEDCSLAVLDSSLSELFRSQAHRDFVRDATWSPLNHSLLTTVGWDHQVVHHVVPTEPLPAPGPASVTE

IC50 (PRMT5-MEP50; [1]) [µM]	IC50 (METTL3/METTL14; [2]) [µM]	SMILES	IC50 (PRMT5-MEP50) [µM]	IC50 (METTL3/METTL14) [µM]
		CN(C)C(=O)c1cn([C@@H]2O[C@H](COc3ccc4ccc(N5CCC5)nc4c3)[C@@H](O)[C@@H]2F)c2ncnc(N)c12 [I-216]	0.1 to 1	0.01 to 0.1
		Cn1ccc(-c2cn([C@@H]3O[C@H](COc4ccc5ccc(NC6CNC6)nc5c4)[C@@H](O)[C@@H]3F)c3ncnc(N)c23)n1 [I-196]	> 1	0.1 to 1
		Cn1ccc(-c2cn([C@@H]3O[C@H](COc4ccc5ccc(N[C@H]6C[C@@H](N)C6)nc5c4)[C@@H](O)[C@@H]3F)c3ncnc(N)c23)n1 [I-201]	0.1 to 1	0.01 to 0.1
		Cn1ccc(-c2cn([C@@H]3O[C@H](COc4ccc5sc(N6CCC6)nc5c4)[C@@H](O)[C@@H]3F)c3ncnc(N)c23)n1 [I-177]	> 1	0.01 to 0.1
> 1	< 0.01	Nc1ncnc2c1ccn2[C@@H]1O[C@H](COc2ccc3ccc(NC4CCC4)nc3c2)[C@@H](O)[C@@H]1F [I-185]		
> 1	0.01 to 0.1	Nc1ncnc2c1ccn2[C@H]1C[C@H](O)[C@@H](CCc2ccc3ccc(N4CCC4)nc3c2)O1 [I-198]		
0.01 to 0.1	0.01 to 0.1	CNc1ccc2sc(CC[C@H]3O[C@@H](n4ccc5c(N)ncnc54)[C@@H](F)[C@@H]3O)cc2n1 [I-193]		
		CNc1nc2cc(OC[C@H]3O[C@@H](n4cc(-c5ccn(C)n5)c5c(N)ncnc54)[C@@H](F)[C@@H]3O)ccc2s1 [I-176]	> 1	0.1 to 1
		Cn1ccc(-c2cn([C@@H]3O[C@H](COc4ccc(C(=O)N5CCNCC5)c(N)c4)[C@@H](O)[C@@H]3F)c3ncnc(N)c23)n1 [I-174]	> 1	0.1 to 1
		Nc1ncnc2c1c(-n1cccn1)cn2C1CC(CCc2ccc3ccc(NC4CCC4)nc3c2)C(O)C1F (centres unmarked) [I-235]	0.01 to 0.1	0.1 to 1
		Cn1ccc(-c2cn([C@@H]3O[C@H](COc4ccc5ncc(N6CCC6)nc5c4)[C@@H](O)[C@@H]3F)c3ncnc(N)c23)n1 [I-189]	> 1	0.01 to 0.1
		CN(c1ccc2ccc(OC[C@H]3O[C@@H](n4cc(-c5ccn(C)n5)c5c(N)ncnc54)[C@@H](F)[C@@H]3O)cc2n1)C1CCC1 [I-202]	> 1	< 0.01
		CNc1nc2cc(OC[C@H]3O[C@@H](n4cc(-n5cccn5)c5c(N)ncnc54)[C@@H](F)[C@@H]3O)ccc2s1 [I-195]	> 1	0.1 to 1
		CNc1nc2cc(OC[C@H]3O[C@@H](n4cc(-c5ccn(C)n5)c5c(N)ncnc54)[C@@H](F)[C@@H]3O)ccc2[nH]1 [I-208]	0.1 to 1	< 0.01
		Cc1ccn(-c2cn([C@@H]3O[C@H](COc4ccc5ccc(N6CC(O)C6)nc5c4)[C@@H](O)[C@@H]3F)c3ncnc(N)c23)n1 [I-187]	> 1	< 0.01
		CCc1nc2cc(OC[C@H]3O[C@@H](n4cc(-c5ccn(C)n5)c5c(N)ncnc54)[C@@H](F)[C@@H]3O)ccc2o1 [I-168]	> 1	> 1
		Cn1ccc(-c2cn([C@@H]3O[C@H](COc4ccc5ccc(C(=O)N6CCC6)nc5c4)[C@@H](O)[C@@H]3F)c3ncnc(N)c23)n1 [I-203]	> 1	> 1
		Cn1ccc(-c2cn([C@@H]3O[C@H](COc4ccc5ccc(NC67CC(C6)C7)nc5c4)[C@@H](O)[C@@H]3F)c3ncnc(N)c23)n1 [I-200]	0.1 to 1	< 0.01
> 1	< 0.01	CN(C)Cc1cn([C@@H]2O[C@H](COc3ccc4ccc(N5CCC5)nc4c3)[C@@H](O)[C@@H]2F)c2ncnc(N)c12 [I-214]		

IC50 (PRMT5-MEP50; [1]) [µM]	IC50 (METTL3/METTL14; [2]) [µM]	SMILES	IC50 (PRMT5-MEP50) [µM]	IC50 (METTL3/METTL14) [µM]
> 1	0.1 to 1	Nc1ncnc2c1ccn2[C@@H]1O[C@H](CCC2CCNCC2)[C@@H](O)[C@@H]1F [I-192]		
0.01 to 0.1	0.1 to 1	Nc1ncnc2c1ccn2[C@H]1C[C@H](O)[C@@H](COc2ccc3ccc(N4CC(N)C4)nc3c2)O1 [I-184]		
	0.01 to 0.1	CCc1cc(N(C)C2CC2)c2ccc(OC[C@H]3O[C@@H](n4ccc5c(N)ncnc54)C[C@@H]3O)cc2n1 [I-161]		
		CCc1nc2cc(OC[C@H]3O[C@@H](n4cc(-c5ccn(C)n5)c5c(N)ncnc54)[C@@H](F)[C@@H]3O)ccc2[nH]1 [I-172]	> 1	0.1 to 1
		CNc1nc2cc(OC[C@H]3O[C@@H](n4cc(-c5ccn(C)n5)c5c(N)ncnc54)[C@@H](F)[C@@H]3O)ccc2o1 [I-173]	> 1	0.1 to 1
		CNc1nc2cc(OC[C@H]3O[C@@H](n4cc(-n5ccc(C)n5)c5c(N)ncnc54)C[C@@H]3O)ccc2cc1F [I-207]	> 1	> 1
0.1 to 1	0.1 to 1	Nc1ncnc2c1ccn2[C@@H]1O[C@H](COc2ccc3ccc(N[C@H]4C[C@@H](N)C4)nc3c2)[C@@H](O)[C@@H]1F [I-204]		
		Cc1ccn(-c2cn([C@@H]3O[C@H](COc4ccc5ccc(N6CC(N)C6)nc5c4)[C@@H](O)[C@@H]3F)c3ncnc(N)c23)n1 [I-186]	0.1 to 1	0.01 to 0.1
		Nc1ncnc2c1c(-n1cccn1)cn2[C@@H]1C[C@H](CCc2cc3nc(N4CCC4)ccc3cc2F)[C@@H](O)C1 [I-210]	> 1	< 0.01
> 1	< 0.01	CC1(C)COC(c2cn([C@@H]3O[C@H](COc4ccc5ccc(N6CCC6)nc5c4)[C@@H](O)[C@@H]3F)c3ncnc(N)c23)=N1 [I-213]		
> 1	> 1	Nc1cc(OC[C@H]2O[C@@H](n3ccc4c(N)ncnc43)[C@@H](F)[C@@H]2O)ccc1C(=O)N1CCNCC1 [I-175]		
		Cn1ccc(-c2cn([C@H]3C[C@H](O)[C@@H](CCc4ccc5ccc(N6CCC6)nc5c4)O3)c3ncnc(N)c23)n1 [I-194]	> 1	< 0.01
		Nc1ncnc2c1c(-c1cnccn1)cn2[C@@H]1O[C@H](COc2ccc3ccc(N4CCC4)nc3c2)[C@@H](O)[C@@H]1F [I-215]	> 1	< 0.01
		CCNc1ccc2ccc(CC[C@H]3C[C@@H](n4cc(-n5cccn5)c5c(N)ncnc54)C[C@@H]3O)cc2n1 [I-209]		< 0.01
> 1	0.01 to 0.1	Nc1ncnc2c1ccn2[C@@H]1O[C@H](COc2ccc3ccc(N4CC(N)C4)nc3c2)[C@@H](O)[C@@H]1F [I-188]		
		Cn1ccc(-c2cn([C@H]3C[C@H](O)[C@@H](COc4ccc5ccc(N6CC(N)C6)nc5c4)O3)c3ncnc(N)c23)n1 [I-182]	> 1	< 0.01
		Cn1ccc(-c2cn([C@@H]3O[C@H](COc4ccc5ccc(N[C@H]6C[C@H](N)C6)nc5c4)[C@@H](O)[C@@H]3F)c3ncnc(N)c23)n1 [I-197]	0.1 to 1	0.01 to 0.1
		CN(CCS(C)(=O)=O)c1ccc2ccc(OC[C@H]3O[C@@H](n4cc(-c5ccn(C)n5)c5c(N)ncnc54)[C@@H](F)[C@@H]3O)cc2n1 [I-166]	> 1	0.1 to 1

SMILES	IC50 (PRMT5-MEP50; [1]) [µM]	IC50 (METTL3/METTL14; [2]) [µM]	IC50 (PRMT5-MEP50) [µM]	IC50 (METTL3/METTL14) [µM]
Nc1ncnc2c1c([C@@H]1CCCO1)cn2[C@@H]1O[C@H](COc2ccc3ccc(N4CCC4)nc3c2)[C@@H](O)[C@@H]1F [I-224]	0.1 to 1	< 0.01		
